Measured values reported in patent US10501479B2, “Benzenesulfonyl-asymmetric ureas and medical uses thereof” (HELSINN HEALTHCARE SA, priority 2016, dated 2019).
pEC50, pIC50: −log10 of the molar value. Where two headings read alike, the source gives them in different places.

Experiments:
Format in all cases: cell-based
[1] = biological target: T1, recombinant human ghrelin receptor (HEK293/GRLN) (Homo sapiens, UniProt Q92847); assay: Ghrelin inverse agonist potency (EC50) with IP-1 (IP-One HTRF) assay; details: IP-1 assay
T1 construct: expressed in transfected cells
In short: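 IP-1 accumulation was measured by HTRF (IP1-d2/Tb-cryptate, 620/665 nm read after 1 hour at room temperature) following 1 hour of compound treatment at 37° C. Cells were HEK293 stably expressing human ghrelin receptor, plated a day earlier on Matrigel. Inverse agonist potency was reported as EC50.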

[2] = biological target: T2, GHSR-1a (HEK293/GHSR1a cell line) (Homo sapiens, UniProt Q92847); assay: Ghrelin agonist potency (EC50) with calcium FLIPR assay
T2 construct: expressed in transfected cells; host or cells: HEK293/GHSR1a cell line
Experimental: Evaluation of Ghrelin Agonist (EC50) and Antagonist Potency (IC50) with Calcium FLIPR Assay:
The intracellular calcium assay was carried out in a 384-well format FLIPR™ (Molecular Device) HEK293/GHSR1a cell line. Cells were seeded 24 hr prior to the experiments at an optimal density per well. Preincubation with selected calcium dye lasted for 30-60 min at room temperature or 37° C. Test compounds, dissolved in DMSO, were added at the appropriate time and incubated for 15 min followed by the addition of ghrelin with FlexStation or FLIPR. Relative fluorescence was monitored by the FLIPR™ Molecular Device. EC50 and IC50 values were estimated from dose-response data using GraphPad Prism software. To check for GHSR-1a agonism, the compound was added at t=20 sec. and the calcium response was followed for 2 minutes. To check for GHSR-1a antagonism, the compound and Ghrelin (10 nM) were added to the cells at t=20 sec. and the calcium response was measured for 2 minutes. The potency of the antagonist was calculated by its ability to reduce the ghrelin response. Dose-response curves were made for relevant antagonists.

[3] = biological target: T2, GHSR-1a (HEK293/GHSR1a cell line); assay: Ghrelin antagonist potency (IC50) with calcium FLIPR assay, ghrelin 10 nM
In short: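 In this assay, compound alone assesses agonism, while compound co-added with ghrelin at 10 nM assesses antagonism. In both modes the calcium-dye signal is tracked for 2 min from t=20 sec.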

[4] = HEK293/GRLN, read-out: Activity EC50 (ghrelin inverse agonist potency)
[5] = HEK293/GHSR1a, read-out: Activity EC50/EMax: EC50 (ghrelin agonist potency)
[6] = HEK293/GHSR1a, ghrelin 10 nM, read-out: Activity IC50 (ghrelin antagonist potency)
[7] = ghrelin inverse agonist potency, read-out: Activity EC50
[8] = ghrelin agonist potency, read-out: Activity EC50/EMax
[9] = ghrelin antagonist potency, read-out: Activity IC50

T1 sequence (Q92847 whole entry): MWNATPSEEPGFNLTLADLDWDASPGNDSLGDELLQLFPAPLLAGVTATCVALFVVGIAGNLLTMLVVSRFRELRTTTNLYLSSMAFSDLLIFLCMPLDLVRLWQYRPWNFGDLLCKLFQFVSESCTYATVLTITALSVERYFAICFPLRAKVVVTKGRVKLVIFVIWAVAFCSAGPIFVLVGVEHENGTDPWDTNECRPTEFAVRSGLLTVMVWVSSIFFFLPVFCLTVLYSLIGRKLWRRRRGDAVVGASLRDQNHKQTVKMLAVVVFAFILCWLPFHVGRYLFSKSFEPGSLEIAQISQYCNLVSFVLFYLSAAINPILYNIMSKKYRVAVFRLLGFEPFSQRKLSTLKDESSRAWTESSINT
T2 sequence (Q92847 whole entry): as above

Work on `CCN(CC)C1CCC(CS(=O)(=O)c2ccc(NC(=O)NC(C)c3cccc(Cl)c3Cl)cc2)CC1` (stereo not drawn) [H1372, 1-(1-(2,3-dichlorophenyl)ethyl)-3-(4-(((4-(diethylamino)cyclohexyl)methyl)sulfonyl)phenyl)urea] yielded a pEC50 [1, 4] of 6.03, a pEC50 [2, 5] of under 4.52 and a pIC50 [3, 6] of 4.74.
For `CC(NC(=O)Nc1ccc(S(=O)(=O)Cc2ccc3c(c2)CNC3)c(CO)c1)c1ccccc1` (stereo not drawn) [H1520, 1-(3-(hydroxymethyl)-4-((isoindolin-5-ylmethyl)sulfonyl)phenyl)-3-(1-phenylethyl)urea], the pEC50 [1, 7] was 7.90, the pEC50 [2, 8] was under 4.52 and the pIC50 [3, 9] was 7.58.
In the case of `CC(NC(=O)Nc1ccc(S(=O)(=O)Cc2ccc3c(c2)CN(CC#N)C3)cc1)c1ccccc1` (stereo not drawn) [H1339, 1-(4-(((2-(cyanomethyl)isoindolin-5-yl)methyl)sulfonyl)phenyl)-3-(1-phenylethyl)urea], the pEC50 [1, 4] was 6.75, the pEC50 [2, 5] was under 4.52 and the pIC50 [3, 6] was 6.51.
`CC(NC(=O)Nc1ccc(S(=O)(=O)Cc2ccc3c(c2)CNC3)cc1)c1ccc2c(c1)OCO2` (stereo not drawn) [H1452, 1-(1-(benzo[d][1,3]dioxol-5-yl)ethyl)-3-(4-((isoindolin-5-ylmethyl)sulfonyl)phenyl)urea] was tested, and the pEC50 [1, 4] was 7.46, the pEC50 [2, 5] was under 4.52 and the pIC50 [3, 6] was 7.06.
With `CC(=O)N1C2CC=C(CS(=O)(=O)c3ccc(NC(=O)NC(C)c4cccc(Cl)c4Cl)cc3)C1CC2` (stereo not drawn) [H1513, 1-(4-(((8-acetyl-8-azabicyclo[3.2.1]oct-2-en-2-yl)methyl)sulfonyl)phenyl)-3-(1-(2,3-dichlorophenyl)ethyl)urea] the pEC50 [1, 7] was 6.15, the pEC50 [2, 8] was under 4.52 and the pIC50 [3, 9] was 4.84.
For `CC(NC(=O)Nc1ccc(S(=O)(=O)Cc2ccc3c(c2)CNC3)cc1C(C)(C)O)c1ccccc1` (stereo not drawn) [H1512, 1-(2-(2-hydroxypropan-2-yl)-4-((isoindolin-5-ylmethyl)sulfonyl)phenyl)-3-(1-phenylethyl)urea], the pEC50 [1, 7] was 6.56, the pEC50 [2, 8] was under 4.52 and the pIC50 [3, 9] was 6.23.
In the case of `CC(c1ccccc1)n1c(=O)[nH]c2ccc(S(=O)(=O)Cc3ccc4c(c3)CNC4)cc2c1=O` (stereo not drawn) [H1469, 6-((isoindolin-5-ylmethyl)sulfonyl)-3-(1-phenylethyl)quinazoline-2,4(1H,3H)-dione], the pEC50 [1, 7] was 7.59, the pEC50 ([2]; heading: Activity EC50/EMax, ghrelin agonist potency, read-out: Activity EC50/EMax) was 6.96 and the pIC50 [3, 9] was 6.96.
`CC(NC(=O)Nc1ccc(S(=O)(=O)Cc2ccc3c(c2)C(=O)NC3)cc1)c1ccccc1` (stereo not drawn) [H1291, 1-(4-(((3-oxoisoindolin-5-yl)methyl)sulfonyl)phenyl)-3-(1-phenylethyl)urea] gave a pEC50 [1, 4] of 6.33, a pEC50 [2, 5] of under 4.52 and a pIC50 [3, 6] of 5.92.
Work on `CC(NC(=O)Nc1ccc(S(=O)(=O)Cc2ccc3c(c2)CNC3)cc1-c1cnn(C)c1)c1ccccc1` (stereo not drawn) [H1535, 1-(4-((isoindolin-5-ylmethyl)sulfonyl)-2-(1-methyl-1H-pyrazol-4-yl)phenyl)-3-(1-phenylethyl)urea] yielded a pEC50 [1, 7] of 7.67, a pEC50 [2, 8] of under 4.52 and a pIC50 [3, 9] of 6.31.
Work on `CC(NC(=O)Nc1ccc(S(=O)(=O)Cc2ccc3c(c2)CN(C)C3)cc1CO)c1ccccc1` (stereo not drawn) [H1468, 1-(2-(hydroxymethyl)-4-(((2-methylisoindolin-5-yl)methyl)sulfonyl)phenyl)-3-(1-phenylethyl)urea] yielded a pEC50 [1, 7] of 7.74, a pEC50 [2, 8] of under 4.52 and a pIC50 [3, 9] of 7.09.
Compound `Cc1ccc(C(C)NC(=O)Nc2ccc(S(=O)(=O)Cc3ccc4c(c3)CNC4)cc2)cc1C(F)F` (stereo not drawn) [H1521, 1-(1-(3-(difluoromethyl)-4-methylphenyl)ethyl)-3-(4-((isoindolin-5-ylmethyl)sulfonyl)phenyl)urea] has a pEC50 [1, 7] of 7.75, a pEC50 [2, 8] of under 4.52 and a pIC50 [3, 9] of 7.28.
`COc1cc2c(cc1CS(=O)(=O)c1ccc(NC(=O)NC(C)c3cccc(Cl)c3Cl)cc1)CCN(C)C2` (stereo not drawn) [H1368, 1-(1-(2,3-dichlorophenyl)ethyl)-3-(4-(((7-methoxy-2-methyl-1,2,3,4-tetrahydroisoquinolin-6-yl)methyl)sulfonyl)phenyl)urea] gave a pEC50 [1, 4] of 8.55, a pEC50 [2, 5] of under 4.52 and a pIC50 [3, 6] of 7.69.
`CC(NC(=O)Nc1ccc(S(=O)(=O)Cc2cccc(CN)c2)cc1)c1ccccc1` (stereo not drawn) [H1290, 1-(4-((3-(aminomethyl)benzyl)sulfonyl)phenyl)-3-(1-phenylethyl)urea] gave a pEC50 [1, 4] of 6.14, a pEC50 [2, 5] of under 4.52 and a pIC50 [3, 6] of 5.47.
With `CC(NC(=O)Nc1ccc(S(=O)(=O)CC2CCC(NCC3CC3)CC2)cc1)c1cccc(Cl)c1Cl` (stereo not drawn) [H1371, 1-(4-(((4-((cyclopropylmethyl)amino)cyclohexyl)methyl)sulfonyl)phenyl)-3-(1-(2,3-dichlorophenyl)ethyl)urea] the pEC50 [1, 4] was 6.64, the pEC50 [2, 5] was under 4.52 and the pIC50 [3, 6] was 5.61.
`CC(c1ccccc1)N(C)C(=O)Nc1ccc(S(=O)(=O)Cc2ccc3c(c2F)CNC3)cc1` (stereo not drawn) [H1409, 3-(4-(((4-fluoroisoindolin-5-yl)methyl)sulfonyl)phenyl)-1-methyl-1-(1-phenylethyl)urea] was tested, and the pEC50 [1, 4] was 7.13, the pEC50 [2, 5] was under 4.52 and the pIC50 [3, 6] was 6.55.
`COc1ccc(CNC(=O)Nc2ccc(S(=O)(=O)Cc3ccc4c(c3)CN(C)C4)cc2)cc1Cl` [H1478, 1-(3-chloro-4-methoxybenzyl)-3-(4-(((2-methylisoindolin-5-yl)methyl)sulfonyl)phenyl)urea] was tested, and the pEC50 [1, 7] was 7.71, the pEC50 [2, 8] was under 4.52 and the pIC50 [3, 9] was 7.39.
`NC(=O)C(NC(=O)Nc1ccc(S(=O)(=O)Cc2ccc3c(c2)CNC3)cc1)c1ccccc1` (stereo not drawn) [H1457, 2-(3-(4-((isoindolin-5-ylmethyl)sulfonyl)phenyl)ureido)-2-phenylacetamide] showed a pEC50 [1, 7] of 6.91, a pEC50 [2, 8] of under 4.52 and a pIC50 [3, 9] of 4.78.
Work on `CC(NC(=O)Nc1ccc(S(=O)(=O)Cc2ccc3c(c2)CNC3)c(C(N)=O)c1)c1ccccc1` (stereo not drawn) [H1531, 2-((isoindolin-5-ylmethyl)sulfonyl)-5-(3-(1-phenylethyl)ureido)benzamide] yielded a pEC50 [1, 7] of 6.35, a pEC50 [2, 8] of under 4.52 and a pIC50 [3, 9] of 6.38.
In the case of `C[C@@H](NC(=O)Nc1ccc(S(=O)(=O)Cc2csc3c2CN(C)C3)cc1)c1ccccc1` [H1351, (R)-1-(4-(((5-methyl-5,6-dihydro-4H-thieno[2,3-c]pyrrol-3-yl)methyl)sulfonyl)phenyl)-3-(1-phenylethyl)urea], the pEC50 [1, 4] was 5.16, the pEC50 [2, 5] was under 4.52 and the pIC50 [3, 6] was 5.46.
`CC(NC(=O)Nc1ccc(S(=O)(=O)Cc2ccc3c(c2)CNC3)cc1-c1ccncc1)c1ccccc1` (stereo not drawn) [H1534, 1-(4-((isoindolin-5-ylmethyl)sulfonyl)-2-(pyridin-4-yl)phenyl)-3-(1-phenylethyl)urea] was tested, and the pEC50 [1, 7] was 7.05, the pEC50 [2, 8] was under 4.52 and the pIC50 [3, 9] was 5.78.
Compound `COc1ccc(C(C)NC(=O)Nc2ccc(S(=O)(=O)Cc3ccc4c(c3)CNC4)cc2)cc1Cl` (stereo not drawn) [H1475, 1-(1-(3-chloro-4-methoxyphenyl)ethyl)-3-(4-((isoindolin-5-ylmethyl)sulfonyl)phenyl)urea] has a pEC50 [1, 7] of 7.72, a pEC50 [2, 8] of under 4.52 and a pIC50 [3, 9] of 7.49.
For `COc1ccc(C(C)NC(=O)Nc2ccc(S(=O)(=O)Cc3ccc4c(c3)CN(C)C4)cc2)cc1OC` (stereo not drawn) [H1449, 1-(1-(3,4-dimethoxyphenyl)ethyl)-3-(4-(((2-methylisoindolin-5-yl)methyl)sulfonyl)phenyl)urea], the pEC50 [1, 4] was 6.03, the pEC50 [2, 5] was under 4.52 and the pIC50 [3, 6] was 5.38.
For `COc1cc2c(cc1CS(=O)(=O)c1ccc(NC(=O)NC(C)c3cccc(Cl)c3Cl)cc1)CCNC2` (stereo not drawn) [H1392, 1-(1-(2,3-dichlorophenyl)ethyl)-3-(4-(((7-methoxy-1,2,3,4-tetrahydroisoquinolin-6-yl)methyl)sulfonyl)phenyl)urea], the pEC50 [1, 4] was 7.28, the pEC50 [2, 5] was under 4.52 and the pIC50 [3, 6] was 7.01.
Compound `COc1cc(S(=O)(=O)Cc2ccc(CO)cc2)ccc1NC(=O)NC(C)c1ccc(OC)c(Cl)c1Cl` (stereo not drawn) [H1435, 1-(1-(2,3-dichloro-4-methoxyphenyl)ethyl)-3-(4-((4-(hydroxymethyl)benzyl)sulfonyl)-2-methoxyphenyl)urea] has a pEC50 [1, 4] of under 5.00, a pEC50 [2, 5] of under 4.52 and a pIC50 [3, 6] of under 4.52.
In the case of `COc1ccc(C(C)NC(=O)Nc2ccc(S(=O)(=O)Cc3ccc4c(c3)CN(C)C4)cc2)cc1Cl` (stereo not drawn) [H1476, 1-(1-(3-chloro-4-methoxyphenyl)ethyl)-3-(4-(((2-methylisoindolin-5-yl)methyl)sulfonyl)phenyl)urea], the pEC50 [1, 7] was 7.62, the pEC50 [2, 8] was under 4.52 and the pIC50 [3, 9] was 7.37.
Compound `COc1cccc(OC)c1C(C)NC(=O)Nc1ccc(S(=O)(=O)Cc2ccc3c(c2)CNC3)cc1` (stereo not drawn) [H1450, 1-(1-(2,6-dimethoxyphenyl)ethyl)-3-(4-((isoindolin-5-ylmethyl)sulfonyl)phenyl)urea] has a pEC50 [1, 4] of 6.74, a pEC50 [2, 5] of under 4.52 and a pIC50 [3, 6] of 6.54.
